The subject of one series is PI3Kδ. Particulars: cited from earlier work.
The test system of the next series is MCF-7. The series can be described thus: SRB cell viability/antiproliferative assay, MCF-7. Particulars: Homo sapiens, MCF7, 48 h; for Emax: SRB 48 h, MCF-7, maximum effect at maximum concentration used.
Details of series [1]: method as in PMID 32022441. Particulars: cited from earlier work.
The subject of the next series is mTOR. As to conditions: cited from earlier work.
On the set-up of series [2]: method as in PMID 32022441. As to conditions: cited from earlier work. The source holds these as a separate data set.
For series [3], the system named is PC3 prostate carcinoma cell line. Further details: method as in PMID 33919077. As to conditions: cited from earlier work.
Series [4] has as its system human prostate cancer cell line (PC-3). Description: MTT cell viability assay, PC-3. As to conditions: Homo sapiens. Background: Tetrazolium assays rely on reduction of a dye to a coloured formazan, in cell work by metabolically active cells.
Experimental: After the incubation time, the plate was centrifuged (Universal centrifuge 320R Hettich, Kirchlengern, Germany) at 440× g, 10 min and 4 °C, then 110 µL of supernatant was removed and 10 µL of MTT solution was added and left to incubate for 3.5 h in the oven at 37 °C and 5% CO2. […] The CC50 was calculated using the GraphPad Prism 9.0 program. Each sample was tested in triplicate in three independent experiments (N3) [32, 33].
The subject of the next series is PI3Kβ. As to conditions: cited from earlier work.
A further series deals with PI3Kα. Particulars: cited from earlier work.
For series [5], the system named is human peripheral blood mononuclear cells (hPBMC). Description: PBMC viability assay by MTT. Type of series: cell-based. Particulars: MTT 48 h; for Emax: human PBMC, maximum cytotoxic response at 100 µM; for CC50: non-tumour human PBMC. The method, then: (§1) The SI indicates how selective a compound is for a tumour cell line compared with a non-tumour cell line.
(§2) Human peripheral blood mononuclear cells (PBMCs) were used to determine the selectivity index (SI) and were obtained from healthy volunteers under a protocol approved by the Ethics Committee CAAE: 38257914.7.0000.5259. Immortalized cells were also obtained from the Rio de Janeiro Cell Bank (BCRJ).
(§3) First, 8 mL of blood from each healthy donor (3 people) was collected in a tube with EDTA in a 1:20 ratio to prevent the blood from clotting. In a 15 mL Falcon tube containing 4 mL of Ficoll-Paque, the 8 mL of blood collected was slowly added, letting it fall down the walls of the tube. It was centrifuged (Universal Centrifuge 320R Hettich) for 40 min at 750× g at 21 °C with acceleration 1 and brake 0. After centrifugation, in order to extract the ring of mononuclear cells, the supernatant above it was first carefully discarded so as not to disturb the ring. The ring was then slowly removed and placed in another 15 mL Falcon tube to which pure RPMI-1640 medium was added in a 1:1 ratio and centrifuged for 10 min at 580× g and 21 °C with acceleration 8 and brake 9 [34, 35].
(§4) The supernatant was discarded, and the pellet was resuspended in 1 mL of RPMI-1640 medium supplemented with 10% SBF and 1% antibiotic. An amount of 20 µL of cells were taken from the mixture and added to 380 µL of trypan blue dye for counting in the Neubauer chamber. Considering that 80% of PBMCs are lymphocytes and the rest are monocytes, the cells were plated with the aim of having 10^5 cell/well.

Series [6] in a line: PBMC viability assay by MTT. It is filed as cell-based, human. As to conditions: MTT 48 h, non-tumour human PBMC. The method, then: as §1, §2, §3, §4
The subject of series [7] is PC3 prostate carcinoma cell line. Further details: method as in PMID 33919077. Particulars: PC3, flow cytometry, 24 h assay; cited from earlier work. (In general: Flow cytometry measures light scatter and fluorescence of single cells or particles in a stream.)
The nature of another series: PAMPA—GIT. Type of series: in vitro ADME. Particulars: for Papp: PAMPA, read-out: Pe. Exp. GIT. As to the method:
To obtain information on the permeability potential of LASSBio-2208 on cell membranes, this derivative was tested using the parallel artificial membrane permeability assay (PAMPA) that is used as an in vitro model of passive diffusion and transcellular permeation. In this model, the permeability across two artificial membranes is measured: brain lipid from pig extract in dodecane (called PAMPA—BBB) and L-α soy phosphatidylcholine in dodecane (called PAMPA—TGI).
To perform the permeability assay we used a donor plate where the compounds (tests or controls) are diluted in a buffered medium, characterized by the presence of a synthetic membrane of polyvinylidene fluoride (PVDF) impregnated with a lipid solution, forming a barrier through which the compounds migrate through a diffusion process to the lower plate called the receptor.
The lipid mixture that impregnates the filter has a different constitution for the permeability tests for the blood–brain barrier (brain lipid from pig extract in dodecane) and gastrointestinal tract (L-α soy phosphatidylcholine in dodecane). In the PAMPA—BBB and PAMPA—GIT assays, the optical density values obtained in the reading at each selected wavelength, for each of the compounds were analysed in comparison with the values of several controls. In the case of the BBB, these values were used to elaborate an equation and determine the permeability coefficient (Pe), using a previously elaborated spreadsheet, and, for the PAMPA—GIT, these values were used to determine the absorbed fraction (Fa%), both using the Excel program. The permeability result for PAMPA—GIT classifies the compounds according to the percentage of absorbed fraction (Fa%), as follows: high intestinal permeability (70–100%), medium permeability (30–69%) or low permeability (0–29%), and the samples were diluted from a stock solution of 10 mM. The PAMPA—BBB model classifies the compounds only as follows: permeable (CNS+) or non-permeable (CNS−) and the assays were made from a stock solution of 1 mg for each compound [25, 40, 41, 42].
A general note: The PAMPA barrier holds no transporters, so it reflects passive diffusion.

In the next series the test system is PI3Kγ. As to conditions: cited from earlier work.

Molecules are shown by their SMILES. In brackets after ≈: the same amount, converted by molar mass.

The term IC50 denotes the concentration that inhibits the measured activity by half. Broadly, the CC50 is the concentration that lowers cell viability or growth by half. Consider `O=C(NO)c1ccc(/C=N/NC(=O)c2cc(N3CCOCC3)nc(-c3cccc(O)c3)n2)cc1` [LASSBio-2208], for which the 50% inhibitory concentration (IC50) in the series with PI3Kδ was 0.0724 µM; in the series with mTOR, 0.464 µM; in the series on PI3Kβ, 0.0728 µM; in the series on PI3Kα, 0.0463 µM; in the series with PI3Kγ it was 1.3 µM. Moreover, the CC50 is 5.44 µM in the series on MCF-7; more than 100 µM in [4] (24 h); more than 100 µM in series [4] (48 h); more than 100 µM in [4] (72 h); “no cytotoxic effect” in [5]. For the same compound, the Emax with MCF-7 amounted to 67.4%; in series [4] (24 h), 18.4%; in series [4] (48 h), 39.3%; in series [4] (72 h), 42.1%; in series [5], 29.9%. The “calculated logP” value in series [1] is listed as 1.96. Also, the “aqueous solubility (thermodynamic solubility)” value in [2] is 1.81 µM (≈ 0.837 µg/mL). Also, the “reduction of cell viability” value in series [3] (PC3, MTT 24 h, highest concentration studied (5 µM)) is given as approximately 50%. For the same compound, the “effect on cell viability” value in series [3] (PC3, MTT 48 h, 0.01–5 µM) is “no effect on cell viability”. For the same compound, the 50% cytotoxic concentration (CC50) at 48 h in series [6] was more than 100 µM. For the same compound, the cell cycle effect entry in series [7] is given as “cell cycle arrest in the G2/M phase”. Moreover, the “initial cell apoptosis, share of cell population” value in series [7] is on record as 60–66%. The “Fraction Absorbed” value in “PAMPA—GIT” was 13.78%. Also, the Papp in the series “PAMPA—GIT” was found to be 0.39 ×10⁻⁶ cm/s.
As for `CN(C)c1ccc(C(=O)N/N=C/c2ccc(C(=O)NO)cc2)cc1` [LASSBio-1911], the cytotoxic concentration (CC50) in the series with MCF-7 was 39.1 µM; in [4] (24 h), more than 100 µM; in series [4] (48 h), more than 100 µM; in series [4] (72 h), 77.1 µM; in [5], “no cytotoxic effect”. Besides, the Emax in the series on MCF-7 was more than 80%; in [4] (24 h) it was 26.4%; in series [4] (48 h) it was 42.6%; in series [4] (72 h) it was 59.2%; in series [5], 31.1%. In [6], this compound gave a CC50 at 48 h of more than 100 µM. Besides, the “Fraction Absorbed” value in the series “PAMPA—GIT” was 20.15%. Also, the “Pe. Exp. GIT” value in the series “PAMPA—GIT” was 0.592 10^−6 cm/s. In “PAMPA—GIT”, the Papp came out at 0.359 ×10⁻⁶ cm/s.

The values are drawn from article PMC10974272, “Cytotoxic and Antiproliferative Activity of LASSBio-2208 and the Attempts to Determine Its Drug Metabolism and Pharmacokinetics In Vitro Profile” (Pharmaceuticals, 2024).
